Measurements reported in ChEMBL document CHEMBL1145759, “Selective phenolic acylation of 10-hydroxycamptothecin using poly (ethylene glycol) carboxylic acid” (Bioorg Med Chem Lett, 2003).

Columns and labels:
Mus musculus = experiment: Inhibition of human colon tumor (LS174T) xenograft in nude mice; type: functional
[1] = Half life measured in rat plasma; type: ADME
P388 [2] = experiment: Inhibitory activity against P388/0 Leukemia cells; type: functional, cell-based; settings: Mus musculus
[3] = Half life measured in PBS; type: ADME
P388 [4] = experiment: Inhibitory activity against P388 Leukemia cells; type: functional, cell-based; settings: Mus musculus

SMILES	Inhibition (Mus musculus) [%]	half-life [1] [min]	IC50 (P388 [2]) [nM]	half-life [3] [h]	IC50 (P388 [4]) [nM]
CC[C@@]1(O)C(=O)OCc2c1cc1n(c2=O)Cc2cc3cc(OC(=O)COCCO)ccc3nc2-1	57.6	7.2	55	5	
CC[C@@]1(O)C(=O)OCc2c1cc1n(c2=O)Cc2cc3ccccc3nc2-1 [CAMPTOTHECIN]	4.9				7
CC[C@@]1(O)C(=O)OCc2c1cc1n(c2=O)Cc2cc3cc(O)ccc3nc2-1 [HYDROXYCAMPTOTHECIN]	36.5				12
